The text below walks through data of patent publication US9051322B2, “Process for the production of a pemetrexed salt” (SCINOPHARM TAIWAN, LTD., priority 2011, dated 2015).

This data set in a line: Stability of pemetrexed disodium in sodium hydroxide at different temperature (impurity content by HPLC). In kind it is physicochemical. How it is done: In comparison with the prior art, the embodiments of the present invention have the following advantages: • 1) The reaction of the compound of formula (II) or salt thereof with an aqueous basic solution is preferably conducted at a low temperature, e.g., no more than 10° C., in comparison with the room temperature of WO2001014379 and WO1999016742. As shown in Table 1 shown below, the inventors of the present invention unexpectedly discovered that impurities can be reduced or minimized by conducting the reaction at a low temperature. As noted above, after the reaction step, the low temperature is preferably maintained during the steps of adjusting pH and adding anti-solvent. • 2) The anti-solvent is preferably added before adjusting the pH value. The inventors unexpectedly discovered that by doing so, the mixture can be diluted by the addition of the anti-solvent before the adjusting step, therefore minimizing local heat effect and formation of impurities. In comparison, WO2001014379 discloses adjusting the pH value before the addition of an anti-solvent. • 3) In accordance with the present invention, the compound of formula (II) can be converted to a pemetrexed salt (e.g., at a pH of 6.5 to 9.5). In contrast, the process of WO1999016472 comprises making pemetrexed free form first (at a pH of about 3), and then converting the free form to a salt (at a pH of about 6.5 to 9.5). The process of the present invention is simpler and more convenient. • 4) In accordance with an embodiment of the present invention, the crude pemetrexed salt may be crystallized at a room temperature; whereas in accordance with WO2001014379, the crystallizing is conducted at about 70° C. The cooling, heating, and adjusting pH steps of WO2001014379 may be avoided in accordance with the embodiment of the present invention. The process of the present invention can save workup procedures and has better control of impurity.

Where a name gives a salt, the structure may show the parent alone.

Take `Nc1nc2[nH]cc(CCc3ccc(C(=O)N[C@@H](CCC(=O)O)C(=O)O)cc3)c2c(=O)[nH]1` [pemetrexed disodium, L-Glutamic acid, N-[4-[2-(2-amino-4,7-dihydro-4-oxo-1H-pyrrolo[2,3-d]pyrimidin-5-yl)ethyl]benzoyl]-, disodium salt]: the “content of impurity based on HPLC spectra's % Area” value runs as follows: (5 °C, 1 hr) 0.012%; (5 °C, 2 hr) 0.013%; (5 °C, 4 h) 0.035%; (5 °C, 6 hr) 0.066%; (10 °C, 1 hr) 0.051%; (10 °C, 2 hr) 0.053%. Moreover, the “content of impurity based on HPLC spectra's % Area” value runs as follows: (10 °C, 4 h) 0.070%; (10 °C, 6 hr) 0.075%; (15 °C, 1 hr) 0.076%; (15 °C, 2 hr) 0.085%; (15 °C, 4 h) 0.110%; (15 °C, 6 hr) 0.123%.
